{"source": "patent US9758477B2", "about": "“Sulfamoylbenzamide derivatives as antiviral agents against HBV infection” (priority 2011, dated 2017)", "format_in_all_cases": "cell-based, Hepatitis B virus (HBV)", "key": {"encapsidated pgRNA": {"tested_on": "encapsidated pgRNA", "experiment": "Encapsidated pgRNA by Northern blot in AML12HBV10 cells", "details": "2 days, FIG. 3 panel C, Bay41-4109 5 μM, AT-61 25 μM", "experimental": "(§1) To obtain mechanistic insight of the compounds of present invention against HBV, AML12HBV10 cells cultured in the 12-well plates were treated with a series of concentrations of DVR-1, DVR-56 or DVR-23 for two days in the absence of tetracycline (Guo et al., 2007). As positive controls, the cells were also treated with Bay41-4109 (5 μM) or AT-61 (25 μM), the known HBV nucleocapsid assembly effectors that either bind to HBV core protein dimmer to misdirect its interaction and prevent capsid formation (Bay41-4109) (Deres et al., 2003: Stray and Zlotnick, 2006), or interact with a core assembly intermediate and promote the formation of empty capsids (AT-61) (Feld et al., 2007; Katen et al., King et al., 1998). The amounts of intracellular viral mRNA, encapsidated pgRNA, capsids and nucleocapsid-associated HBV DNA were analyzed with the methods detailed below.\nDetermination of encapsidated pgRNA: AML12HBV10 cells were lysed by addition of 600 μl of lysis buffer (50 mM Tris-HCl [pH 7.5], 1 mM EDTA, 150 mM NaCl, 1% NP-40) into each well of 12-well plates. The nuclei were removed by centrifugation at 5,000 g for 10 minutes. One-half of the sample was mixed with 6 U of micrococcal nuclease (Pharmacia) and 15 μl of 100 mM CaCl2 and incubated for 15 minutes at 37° C. to digest free nucleic acids. The reaction was stopped with 6 μl of 0.5 M EDTA, and capsids were precipitated by adding 125 μl of 35% polyethylene glycol 8000 in 1.75 M NaCl to the reaction and incubating in ice for 30 minutes, followed by centrifugation at 6,000 g for 10 minutes at 4° C. Pellets were re-suspended in 50 μl of TNE buffer (10 mM Tris-HCl [pH 8], 100 mM NaCl, 1 mM EDTA), pgRNA was extracted by the addition of 1 ml of Trizol reagent. The encapsidated pgRNA were electrophoresed through a 2.2 M formaldehyde-1% agarose gel, transferred to a nylon membrane, and immobilized by UV cross-linking (Stratagene). Hybridization was performed with an alpha-^32P-UTP labeled riboprobe specific for plus strand of HBV genome."}, "HBV capsids": {"tested_on": "HBV capsids", "experiment": "Viral capsids by particle gel assay", "details": "AML12HBV10 cells, 2 days, FIG. 3 panel B; Bay41-4109 5 μM, AT-61 25 μM", "experimental": "as §1\nProcedures of viral capsids and nucleocapsid-associated DNA analysis: HepDES19 cells were lysed by addition of 300 μl buffer containing 10 mM Tris-HCl (pH7.6), 100 mM NaCl, 1 mM EDTA and 0.1% NP-40 to each well of 12-well plate. […] HBV capsids were detected by probing the membrane with an antibody against HBV core protein (DAKO). […] The viral DNA was detected by hybridization with a α-^32P-UTP (800 Ci/mmol, Perkin Elmer) labeled minus strand specific full-length HBV riboprobe (Xu et al.)."}, "[1]": {"tested_on": "capsid-associated HBV DNA", "experiment": "Nucleocapsid-associated HBV DNA and DNA replication intermediates (particle gel hybridization, Southern blot)", "details": "AML12HBV10 cells, 2 days, FIG. 3 panels D and E; Bay41-4109 5 μM, AT-61 25 μM", "experimental": "as §1\nProcedures of viral capsids and nucleocapsid-associated DNA analysis: HepDES19 cells were lysed by addition of 300 μl buffer containing 10 mM Tris-HCl (pH7.6), 100 mM NaCl, 1 mM EDTA and 0.1% NP-40 to each well of 12-well plate. […] HBV capsids were detected by probing the membrane with an antibody against HBV core protein (DAKO). […] The viral DNA was detected by hybridization with a α-^32P-UTP (800 Ci/mmol, Perkin Elmer) labeled minus strand specific full-length HBV riboprobe (Xu et al.). […]"}}, "data": [{"smiles": "O=C(N/C(C(=O)N1CCCCC1)=C(/Cl)c1ccccc1)c1ccccc1", "note": "[AT-61]", "values": [{"measurement": "level of encapsidated pgRNA", "setting": "encapsidated pgRNA", "result": "dose-dependently reduced"}, {"measurement": "capsid formation", "setting": "HBV capsids", "result": "did not affect"}, {"measurement": "capsid-associated HBV DNA / DNA synthesis", "setting": "[1]", "result": "dose-dependently reduced"}]}]}
